The structures appear in SMILES notation. Bounds are passed on as bounds.

The values that follow come from US9453031B2, “Chemical entities” (Fundación Centro Nacional de Investigaciones Oncológicas …, priority 2013, dated 2016).

In one test the target is ATR (Homo sapiens (Human), UniProt Q13535). Description: Cellular ATR inhibition, western blot of CHK1(S345) phosphorylation in hydroxyurea treated cells. The format is cell-based. The conditions noted are these: HT29 cells. The method, then:
In addition to the selective system described above, Example compounds presented here were screened for their ability to inhibit intracellular ATR using a western blot assay to detect phosphorylation of the ATR substrate CHK1(S345) in hydroxyurea treated cells. HT29 cells are plated at 500,000 cells per well in 6-well plates in RPMI media (Sigma R6504) supplemented with 10% foetal bovine serum (Sigma F7524), Penicillin/Streptomycin solution diluted 1:100 (Gibco 15070-063), and fungizone (Gibco, 15290-018), and allowed to adhere overnight at 37° C. in 5% CO2. Compounds are then added to the cell media from a final concentration of 10 μM in 3-fold serial dilutions and the cells are incubated at 37° C. in 5% CO2. After 15 min, hydroxyurea (Sigma H8627) is added to a final concentration of 2.5 mM. After 30 min of treatment with hydroxyurea, the cells are washed in PBS, lysed adding 50 μl of in protein lysis buffer (50 mM Tris pH 7.5, 150 mM NaCl, 1% IGEPAL CO-630 (Sigma, Ref. 542334-100G-A), Phospho Stop (Roche, Ref. 04906837001) and Complete Mini EDTA free (Roche, Ref. 11836170001)). The protein content of the lysates was determined by the modified method of Bradford (Sigma, Ref. B6916). The proteins were resolved by SDS-PAGE and transferred to nitrocellulose membrane (VWR International Eurolab, Ref. 732-4007). The membranes were incubated overnight at 4° C. with antibodies specific for total CHK1 (Santa Cruz Biotechnology, sc-8404), phosphoserine-345 CHK1 (Cell Signaling Technology #2348) they were washed and then incubated with IRDye800 conjugated anti-mouse (Pierce/Cultek, 35521) and Alexa Fluor 680 goat anti-rabbit IgG secondary antibodies (Invitrogen, A21076). The bands were visualized and quantified using an Odyssey infrared imaging system (Li-Cor Biosciences). The percentage of phosphorylated CHK1 vs total CHK1 in cells treated with hydroxyurea was taken as hundred percent of phosphorylation. The percentage of CHK1 phosphorylation is finally plotted against concentration for each compound and EC50s for intracellular ATR inhibition are calculated using ActivityBase from IDBS.

A further test addresses PI3K (p110α/p85α) (Homo sapiens (Human), UniProt P42336). Put plainly: PI3K alpha activity assay (ADP Hunter Plus). The format is biochemical. The conditions noted are these: 50 μM ATP, 30 μM PIP2; read-out: PI3Kα IC50. The method, then:
The kinase activity was measured by using the commercial ADP Hunter™ Plus assay available from DiscoveRx (#33-016), which is a homogeneous assay to measure the accumulation of ADP, a universal product of kinase activity. […] The reaction was carried out for 1 hour at 25° C. Reagent A and B were sequentially added to the wells and plates were incubated for 30 min at 37° C. Fluorescence counts were read in a Victor instrument (Perkin Elmer) with the recommended settings (544 and 580 nm as excitation and emission wavelengths, respectively).

The next test has as its target mTOR (Homo sapiens (Human), UniProt P42345). Description: mTOR activity assay (LanthaScreen). The format is biochemical. The method, then: The enzymatic mTOR activity was measured using a LanthaScreen™ kinase activity assay (Invitrogen). The enzyme was purchased from Invitrogen (PV4754), as well as the GFP-labelled substrate (4EBP1-GFP; PV4759) and the Tb-antip4EBP1(pThr46) antibody (PV4757). The assay was performed in 50 Mm HEPES buffer, pH 7.5, containing 1.5 mM MnCl2, 10 mM MgCl2, 1 mM EGTA, 2.5 mM DTT and 0.01% Tween-20. The concentration of the assay components were the following: 0.24 nM mTOR kinase, 400 nM 4EBP1-GFP, […] and serial dilutions of the compound (inhibitor) to be evaluated. After 1 h incubation at room temperature, 20 mM EDTA was used to stop the reaction and terbium-labelled antibody (4 nM) added to detect phosphorylated product. The antibody associates with the phosphorylated product resulting in an increased TR-FRET value. The TR-FRET value (a dimensionless number) was calculated as the ratio of the acceptor signal (GFP, emission at 520 nm) to the donor signal (terbium, emission at 495 nm).
On the technique in general: Time-resolved FRET reads energy transfer from a long-lived donor to a nearby acceptor.

Sequence of PI3K (p110α/p85α) (P42336 whole entry): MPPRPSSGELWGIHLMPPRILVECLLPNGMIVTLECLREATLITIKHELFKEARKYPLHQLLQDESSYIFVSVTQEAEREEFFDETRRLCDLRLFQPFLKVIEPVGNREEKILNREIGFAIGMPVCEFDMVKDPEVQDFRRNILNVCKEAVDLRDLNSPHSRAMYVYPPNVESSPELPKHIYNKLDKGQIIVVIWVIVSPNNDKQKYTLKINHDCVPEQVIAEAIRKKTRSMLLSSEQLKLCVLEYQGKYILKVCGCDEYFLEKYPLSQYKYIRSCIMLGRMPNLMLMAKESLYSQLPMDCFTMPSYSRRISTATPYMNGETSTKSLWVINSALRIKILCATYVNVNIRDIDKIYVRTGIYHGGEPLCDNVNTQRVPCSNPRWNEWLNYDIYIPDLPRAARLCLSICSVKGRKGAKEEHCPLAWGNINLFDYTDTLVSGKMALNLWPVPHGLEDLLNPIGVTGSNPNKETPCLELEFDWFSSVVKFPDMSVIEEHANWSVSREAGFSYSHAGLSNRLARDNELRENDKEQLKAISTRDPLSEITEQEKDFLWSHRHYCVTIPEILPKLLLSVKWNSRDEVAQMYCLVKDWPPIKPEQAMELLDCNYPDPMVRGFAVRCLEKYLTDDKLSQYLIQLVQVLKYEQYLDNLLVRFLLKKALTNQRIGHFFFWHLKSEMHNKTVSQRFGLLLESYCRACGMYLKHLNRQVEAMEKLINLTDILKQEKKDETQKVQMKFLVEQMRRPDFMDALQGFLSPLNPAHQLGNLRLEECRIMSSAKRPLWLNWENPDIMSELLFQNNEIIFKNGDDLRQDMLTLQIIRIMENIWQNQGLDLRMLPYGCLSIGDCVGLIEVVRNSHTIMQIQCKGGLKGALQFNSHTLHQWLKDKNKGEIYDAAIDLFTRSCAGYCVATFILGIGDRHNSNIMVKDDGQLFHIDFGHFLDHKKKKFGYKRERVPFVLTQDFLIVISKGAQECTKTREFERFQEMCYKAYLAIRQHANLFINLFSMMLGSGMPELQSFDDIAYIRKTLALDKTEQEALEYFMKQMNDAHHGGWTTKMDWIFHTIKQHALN
Sequence of PI3K (p110α/p85α) (P27986 whole entry partner): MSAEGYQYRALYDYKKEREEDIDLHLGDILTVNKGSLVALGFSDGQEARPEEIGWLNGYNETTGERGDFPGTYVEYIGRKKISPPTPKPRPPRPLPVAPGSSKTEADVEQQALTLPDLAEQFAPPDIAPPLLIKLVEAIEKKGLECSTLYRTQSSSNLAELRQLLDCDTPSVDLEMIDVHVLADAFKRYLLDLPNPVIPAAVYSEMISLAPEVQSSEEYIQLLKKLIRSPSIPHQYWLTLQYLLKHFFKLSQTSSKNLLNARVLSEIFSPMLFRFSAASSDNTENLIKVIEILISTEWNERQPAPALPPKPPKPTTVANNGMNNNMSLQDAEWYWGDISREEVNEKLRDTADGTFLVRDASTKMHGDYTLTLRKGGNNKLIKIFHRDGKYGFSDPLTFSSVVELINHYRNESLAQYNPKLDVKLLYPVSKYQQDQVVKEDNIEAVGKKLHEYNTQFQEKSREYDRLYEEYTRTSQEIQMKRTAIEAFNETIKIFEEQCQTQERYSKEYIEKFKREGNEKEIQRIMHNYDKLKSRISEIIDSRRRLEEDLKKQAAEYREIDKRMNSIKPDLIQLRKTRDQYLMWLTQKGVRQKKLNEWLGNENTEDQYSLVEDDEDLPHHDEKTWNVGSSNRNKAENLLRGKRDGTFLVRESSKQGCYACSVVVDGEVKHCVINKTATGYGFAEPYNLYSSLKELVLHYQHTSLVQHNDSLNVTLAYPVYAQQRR
Sequence of ATR (Q13535 whole entry): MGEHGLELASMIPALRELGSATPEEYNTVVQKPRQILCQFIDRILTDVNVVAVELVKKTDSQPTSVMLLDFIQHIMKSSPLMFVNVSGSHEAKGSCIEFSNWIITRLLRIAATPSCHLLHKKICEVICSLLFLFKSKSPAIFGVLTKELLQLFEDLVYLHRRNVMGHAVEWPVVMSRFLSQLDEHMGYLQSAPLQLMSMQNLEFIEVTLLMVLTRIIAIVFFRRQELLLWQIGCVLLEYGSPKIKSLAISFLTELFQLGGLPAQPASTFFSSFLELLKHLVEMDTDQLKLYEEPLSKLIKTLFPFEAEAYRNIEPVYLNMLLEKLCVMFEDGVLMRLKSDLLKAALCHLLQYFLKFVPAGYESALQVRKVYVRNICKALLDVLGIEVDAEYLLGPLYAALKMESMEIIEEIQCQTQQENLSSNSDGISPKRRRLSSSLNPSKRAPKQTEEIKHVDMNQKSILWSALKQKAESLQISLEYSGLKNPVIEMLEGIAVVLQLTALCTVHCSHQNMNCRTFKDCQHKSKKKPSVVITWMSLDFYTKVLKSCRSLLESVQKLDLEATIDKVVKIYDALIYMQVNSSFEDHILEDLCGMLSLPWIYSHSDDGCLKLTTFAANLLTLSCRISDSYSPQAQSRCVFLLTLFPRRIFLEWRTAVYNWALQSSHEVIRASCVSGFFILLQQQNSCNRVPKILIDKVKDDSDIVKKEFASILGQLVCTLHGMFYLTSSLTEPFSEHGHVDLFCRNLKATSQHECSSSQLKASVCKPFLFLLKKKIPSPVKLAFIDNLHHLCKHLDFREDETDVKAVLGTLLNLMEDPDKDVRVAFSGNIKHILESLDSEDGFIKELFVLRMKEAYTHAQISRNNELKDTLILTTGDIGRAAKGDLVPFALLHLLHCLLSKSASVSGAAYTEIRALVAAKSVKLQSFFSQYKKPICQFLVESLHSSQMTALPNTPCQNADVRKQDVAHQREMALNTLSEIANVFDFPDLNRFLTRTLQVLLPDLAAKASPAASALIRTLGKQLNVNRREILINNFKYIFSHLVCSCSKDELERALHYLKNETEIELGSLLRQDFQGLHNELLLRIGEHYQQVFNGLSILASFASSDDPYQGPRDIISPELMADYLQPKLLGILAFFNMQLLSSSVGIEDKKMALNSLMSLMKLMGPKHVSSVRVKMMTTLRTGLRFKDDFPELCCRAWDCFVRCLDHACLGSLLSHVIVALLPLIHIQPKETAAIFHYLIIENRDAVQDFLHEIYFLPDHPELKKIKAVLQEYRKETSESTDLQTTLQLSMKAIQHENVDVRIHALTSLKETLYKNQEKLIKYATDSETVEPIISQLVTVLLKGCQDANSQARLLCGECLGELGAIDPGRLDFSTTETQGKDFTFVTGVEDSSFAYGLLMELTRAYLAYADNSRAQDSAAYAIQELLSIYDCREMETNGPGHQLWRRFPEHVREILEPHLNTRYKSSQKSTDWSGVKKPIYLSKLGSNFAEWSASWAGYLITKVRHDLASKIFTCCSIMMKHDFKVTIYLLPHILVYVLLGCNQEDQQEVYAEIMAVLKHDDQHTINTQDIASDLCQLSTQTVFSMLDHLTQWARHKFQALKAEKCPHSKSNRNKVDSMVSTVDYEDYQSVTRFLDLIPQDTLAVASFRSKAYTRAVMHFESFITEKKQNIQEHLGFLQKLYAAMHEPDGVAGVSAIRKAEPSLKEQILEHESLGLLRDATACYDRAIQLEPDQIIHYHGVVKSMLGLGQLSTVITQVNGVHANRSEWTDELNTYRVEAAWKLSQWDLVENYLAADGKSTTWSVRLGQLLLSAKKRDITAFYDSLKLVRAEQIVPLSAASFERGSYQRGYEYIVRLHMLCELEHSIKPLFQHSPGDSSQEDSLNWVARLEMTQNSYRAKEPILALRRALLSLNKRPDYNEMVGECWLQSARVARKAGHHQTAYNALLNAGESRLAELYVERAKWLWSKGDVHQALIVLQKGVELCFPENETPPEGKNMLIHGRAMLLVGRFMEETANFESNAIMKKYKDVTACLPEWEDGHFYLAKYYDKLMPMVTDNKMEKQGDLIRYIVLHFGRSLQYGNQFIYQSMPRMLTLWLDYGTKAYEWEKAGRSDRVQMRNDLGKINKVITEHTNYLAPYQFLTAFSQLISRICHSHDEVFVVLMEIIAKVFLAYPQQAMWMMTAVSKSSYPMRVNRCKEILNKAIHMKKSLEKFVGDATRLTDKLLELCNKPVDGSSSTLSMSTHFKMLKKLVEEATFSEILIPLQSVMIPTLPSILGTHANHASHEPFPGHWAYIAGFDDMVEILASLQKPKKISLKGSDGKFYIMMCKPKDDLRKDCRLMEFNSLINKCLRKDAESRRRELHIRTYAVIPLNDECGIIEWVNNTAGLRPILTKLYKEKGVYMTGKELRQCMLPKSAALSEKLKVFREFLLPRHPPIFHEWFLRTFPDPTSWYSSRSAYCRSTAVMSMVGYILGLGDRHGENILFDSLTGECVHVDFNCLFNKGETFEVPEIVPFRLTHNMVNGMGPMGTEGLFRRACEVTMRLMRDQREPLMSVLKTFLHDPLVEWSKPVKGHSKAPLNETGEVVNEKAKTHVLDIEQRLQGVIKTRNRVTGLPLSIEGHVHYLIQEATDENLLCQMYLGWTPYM

Broadly, the EC50 is the concentration at which the effect is half-maximal. Low readings indicate a more potent agent, high ones a less potent agent. `CNc1nc2ccccc2n1-c1nc2c(c(C3(S(C)(=O)=O)CCOCC3)n1)OCCC1COCCN21` (stereo not drawn) [Example 32]: the EC50 on ATR (hydroxyurea 2.5 mM) was > 1000 nM.
At ATR (hydroxyurea 2.5 mM), `CS(=O)(=O)C1(c2nc(-c3c(F)ccc4[nH]ccc34)nc3c2OCC2COCCN32)CCOCC1` (stereo not drawn) [Example 13] had an EC50 of 100 to 1000 nM.
With `COc1cc(-c2nc3c(c(C4([S@TB1](C)(=O)=O)CCOCC4)n2)OCCC2COCCN32)c2cc[nH]c2c1` (stereo not drawn) [Example 34], the EC50 at ATR (hydroxyurea 2.5 mM) was in the range of 100 to 1000 nM.
Still for that read-out and setting: to `CS(=O)(=O)C1(c2nc(-c3cc(F)cc4[nH]ccc34)nc3c2OCC2COCCN32)CCOCC1` (stereo not drawn) [Example 17] belongs < 100 nM.
Molecule `CNc1nc2ccccc2n1-c1nc2c(c(C(C)(C)O)n1)OCC1COCCN21` (stereo not drawn) [Example 39] registered an EC50 at ATR (hydroxyurea 2.5 mM) of 100 to 1000 nM.
In turn, `CS(=O)(=O)C1(c2nc(-c3cncc4[nH]ccc34)nc3c2OCC2COCCN32)CCOCC1` (stereo not drawn) [Example 9] displayed an EC50 on ATR (hydroxyurea 2.5 mM) of 100 to 1000 nM.
Same read-out and setting: to `CS(=O)(=O)C1(c2nc(-c3cccc4[nH]ccc34)nc3c2OC[C@@H]2COCCN32)CCNCC1` [Example 69] belongs 100 to 1000 nM.
As for `COc1ccc(-c2nc3c(c(C4(S(C)(=O)=O)CCOCC4)n2)OCC2COCCN32)c2cc[nH]c12` (stereo not drawn) [Example 37], the EC50 at ATR (hydroxyurea 2.5 mM) lay in the range of 100 to 1000 nM.
`CC1(c2nc(-c3cccc4[nH]ccc34)nc3c2OCC2COCCN32)CCCS1(=O)=O` (stereo not drawn) [Example 41] had an EC50 at ATR (hydroxyurea 2.5 mM) of 100 to 1000 nM.
Turning to `COc1cc(-c2nc3c(c(C4(S(C)(=O)=O)CCOCC4)n2)OCC2COCCN32)c2cc[nH]c2c1` (stereo not drawn) [Example 19], the concentration giving a half-maximal response (EC50) at ATR (hydroxyurea 2.5 mM) was < 100 nM.
`CCNc1nc2ccccc2n1-c1nc2c(c(C(C)(C)S(C)(=O)=O)n1)OC[C@@H]1COCCN21` [Example 64] returned an EC50 on ATR (hydroxyurea 2.5 mM) of 100 to 1000 nM.
With `CNc1nc2cc(Cl)ccc2n1-c1nc2c(c(C3(S(C)(=O)=O)CCC3)n1)OC[C@@H]1COCCN21` [Example 94], the 50% effective concentration (EC50) at ATR (hydroxyurea 2.5 mM) is > 1000 nM.
With `CN1CCC(c2nc(-c3cccc4[nH]ccc34)nc3c2OCC2COCCN32)(S(C)(=O)=O)CC1` (stereo not drawn) [Example 36], the EC50 at ATR (hydroxyurea 2.5 mM) was > 1000 nM.
`c1cc(-c2nc(-c3cccc4[nH]ccc34)c3c(n2)N2CCOCC2CO3)c2cc[nH]c2c1` (stereo not drawn) [Example 42]: the EC50 on ATR (hydroxyurea 2.5 mM) lay within 100 to 1000 nM.
Consider `CNc1nc2ccc(Cl)cc2n1-c1nc2c(c(C3(S(C)(=O)=O)CCC3)n1)OC[C@@H]1COCCN21` [Example 95], for which the EC50 at ATR (hydroxyurea 2.5 mM) is > 1000 nM.
On to `CC(C)(c1nc(-c2c(F)ccc3[nH]ccc23)nc2c1OCC1COCCN21)S(C)(=O)=O` (stereo not drawn) [Example 14], for which the EC50 on ATR (hydroxyurea 2.5 mM) lay in the range of 100 to 1000 nM.
What is called IC50 is the concentration needed to halve the response being measured. Take `COc1cc(-c2nc3c(c(C4(S(C)(=O)=O)CCC4)n2)OC[C@@H]2COCCN32)c2cc[nH]c2c1` [Example 78]: the EC50 at ATR (hydroxyurea 2.5 mM) was < 100 nM. In addition, the half-maximal inhibitory concentration (IC50) at PI3K (p110α/p85α) came out at 4490 nM; at mTOR it was 47 nM.
As to `CCCNc1nc2ccccc2n1-c1nc2c(c(C(C)(C)S(C)(=O)=O)n1)OC[C@@H]1COCCN21` [Example 65], the concentration for a half-maximal effect (EC50) on ATR (hydroxyurea 2.5 mM) is < 100 nM.
Take `CC(C)(c1nc(-c2cccc3[nH]ccc23)nc2c1OCC[C@@H]1COCCN21)S(C)(=O)=O` [Example 25]: the EC50 on ATR (hydroxyurea 2.5 mM) was in the range of 100 to 1000 nM. The IC50 on PI3K (p110α/p85α) is 23400 nM; against mTOR it was 582 nM.
On to `CS(=O)(=O)Cc1nc(-c2cccc3[nH]ccc23)nc2c1OCC1COCCN21` (stereo not drawn) [Example 7], for which the EC50 on ATR (hydroxyurea 2.5 mM) lay within 100 to 1000 nM.
Take `C[S@TB17](=O)(=O)Nc1nc(-c2cccc3[nH]ccc23)nc2c1OCC1COCCN21` (stereo not drawn) [Example 35]: on ATR (hydroxyurea 2.5 mM), the EC50 was > 1000 nM.
Turning to `CS(=O)(=O)C1(c2nc(-c3cccc4[nH]ccc34)nc3c2OCC[C@@H]2COCCN32)CCOCC1` [Example 22], on ATR (hydroxyurea 2.5 mM), the EC50 was 100 to 1000 nM.
As to `Cc1cc2c(-c3nc4c(c(C5(S(C)(=O)=O)CCOCC5)n3)OCC3COCCN43)cccc2[nH]1` (stereo not drawn) [Example 20], the EC50 on ATR (hydroxyurea 2.5 mM) is 100 to 1000 nM.
For the molecule `CN(C)c1nc2ccccc2n1-c1nc2c(c(C(C)(C)S(C)(=O)=O)n1)OC[C@@H]1COCCN21` [Example 79], the EC50 on ATR (hydroxyurea 2.5 mM) lay in the range of 100 to 1000 nM. In addition, the IC50 at PI3K (p110α/p85α) stood at 28600 nM.
For the molecule `CNc1nc2cc(C#N)ccc2n1-c1nc2c(c(C(C)(C)S(C)(=O)=O)n1)OC[C@@H]1COCCN21` [Example 113], at ATR (hydroxyurea […]), the EC50 was > 1000 nM.
Turning to `CCOC(=O)N1CCC(c2nc(-c3cccc4[nH]ccc34)nc3c2OC[C@@H]2COCCN32)(S(C)(=O)=O)CC1` [Example 68], the EC50 on ATR (hydroxyurea 2.5 mM) was in the range of 100 to 1000 nM.
As for `CS(=O)(=O)C1(c2nc(-c3cccc4[nH]ccc34)nc3c2OCC2COCCN32)CC1` (stereo not drawn) [Example 27], the EC50 on ATR (hydroxyurea 2.5 mM) is 100 to 1000 nM.
For the molecule `CS(=O)(=O)C1(c2nc(-c3cccc4[nH]ccc34)nc3c2OC[C@@H]2COCCN32)CCC1` [Example 67], the EC50 at ATR (hydroxyurea 2.5 mM) was < 100 nM.
Molecule `CC(C)(c1nc(-c2cccc3[nH]ccc23)nc2c1OCC[C@H]1COCCN21)S(C)(=O)=O` [Example 24] yielded an EC50 on ATR (hydroxyurea 2.5 mM) of 100 to 1000 nM.
Regarding `CC(C)(c1nc(-c2cccc3[nH]ccc23)nc2c1OCC1COCCN21)S(=O)(=O)C1CC1` (stereo not drawn) [Example 4], on ATR (hydroxyurea 2.5 mM), the EC50 is < 100 nM.
The molecule `CNc1nc2ccccc2n1-c1nc2c(c(C3(S(C)(=O)=O)CCOCC3)n1)OCC1COCCN21` (stereo not drawn) [Example 12] gave an EC50 on ATR (hydroxyurea 2.5 mM) of 100 to 1000 nM.
Still for that read-out and setting: to `CC(C)(c1nc(-c2ccnc3[nH]ccc23)nc2c1OCC1COCCN21)S(C)(=O)=O` (stereo not drawn) [Example 16] belongs 100 to 1000 nM.
Take `CC(C)(c1nc(-c2cccc3[nH]ncc23)nc2c1OC[C@H]1COCCN21)S(C)(=O)=O` [Example 21]: the EC50 at ATR (hydroxyurea 2.5 mM) is > 1000 nM.
On to `CC(C)(O)c1nc(-c2cc(F)cc3[nH]ccc23)nc2c1OC[C@@H]1COCCN21` [Example 45], for which, on ATR (hydroxyurea 2.5 mM), the EC50 lay within 100 to 1000 nM.
Same read-out and setting: in the case of `C[S@TB17](=O)(=O)C1(c2nc(-c3cc(F)cc4[nH]ccc34)nc3c2OCCC2COCCN32)CCOCC1` (stereo not drawn) [Example 33] it was 100 to 1000 nM; in that of `CS(=O)(=O)C1(c2nc(-c3ccnc4[nH]ccc34)nc3c2OCC2COCCN32)CCOCC1` (stereo not drawn) [Example 18], < 100 nM; in that of `CC(C)Nc1nc2ccccc2n1-c1nc2c(c(C(C)(C)S(C)(=O)=O)n1)OC[C@@H]1COCCN21` [Example 63], < 100 nM.
On to `CC(C)(O)c1nc(-c2cccc3[nH]ccc23)nc2c1OCC1COCCN21` (stereo not drawn) [Example 38], for which, on ATR (hydroxyurea 2.5 mM), the 50% effective concentration (EC50) was 100 to 1000 nM.
Take `CS(=O)(=O)C1(c2nc(-c3ccc(F)c4[nH]ccc34)nc3c2OC[C@@H]2COCCN32)CCC1` [Example 76]: the EC50 on ATR (hydroxyurea 2.5 mM) is > 1000 nM. For the same molecule, the IC50 on PI3K (p110α/p85α) came to 50000 nM.
`CS(=O)(=O)c1cccc(-c2nc(-c3cccc4[nH]ccc34)nc3c2OCC2COCCN32)c1` (stereo not drawn) [Example 43] displayed an EC50 at ATR (hydroxyurea 2.5 mM) of 100 to 1000 nM.
`CC(C)(C#N)c1nc(-c2cccc3[nH]ccc23)nc2c1OCC1COCCN21` (stereo not drawn) [Example 40]: the EC50 at ATR (hydroxyurea 2.5 mM) was 100 to 1000 nM.
For the molecule `CNc1nc2ccccc2n1-c1nc2c(c(C(C)(C)[S@TB1](C)(=O)=O)n1)OCCC1COCCN21` (stereo not drawn) [Example 31], the EC50 at ATR (hydroxyurea 2.5 mM) was < 100 nM.
